This is an account of results in US20240336571A1, “NOVEL CYCLOPROPYL COMPOUNDS” (ICAGEN, LLC, priority 2021, published 2024).

This assay concerns the target human Kv7.2 (Homo sapiens (Human), UniProt O43526). As to the kind of experiment: SyncroPatch 384 electrophysiology, activation of Kv7.2 in CHO cells. Format: cell-based. As to conditions: for EC50: CHO cells stably expressing human Kv7.2, potassium current at -90 mV repolarizing step, in presence of zinc pyrithione; for Emax: CHO, Kv7.2 activation max %, relative to 30 μM ML-213 max activation. Here is the method:
The potency of Kv7 potentiators was determined using the SyncroPatch 384 (Nanion) high throughput electrophysiology platform.
CHO cells stably expressing either human Kv7.2, Kv7.4 or Kv7.5/7.3 under a constitutive CMV promoter were used for these studies. Cells were maintained in F12 Hams+1 mM L-glutamine (Hyclone) supplemented with 10% FBS (Sigma), 0.3×NEAA (Non-essential Gamino-acids) and 400 ug/ml G418 at 37° C. in 5% CO2. Cells were cultured in T-225 flasks (Nunc) for 2-3 days to reach 85-95% confluence prior to electrophysiological recording.
Earle's balanced salt solution (in mM): 135 NaCl, 5.4 KCl, 5 Glucose, 2 CaCl2, 1 MgCl2, 5 HEPES, pH 7.4. Seal enhancer solution (in mM): 90 NaCl, 3 KCl, 35 CaCl2, 10 MgCl2, 10 HEPES, pH 7.4. Extracellular recording solution (in mM): 71 NaCl, 70 NMDG, 13 KCl, 5 Glucose, 2 CaCl2, 1 MgCl2, 10 HEPES, pH 7.4. Intracellular recording solution (in mM): 130 KF, 20 KCl, 4 EGTA, 10 HEPES, 2 EDTA, 0.01 Escin, pH 7.2.
Cells were harvested for electrophysiological recording upon reaching appropriate confluence. Cells were first washed in DPBS (Hyclone, Cat #SH30028.03) and then 2 ml of Accutase (MP Biomedicals #1000449) was added at 28° C. until ˜90% of cells were suspended. F12 HAM's media+1 mM L-glutamine (Hyclone, SH30026.02) was then added to the flask to dilute the accutase. Cells were then triturated until a single cell suspension was achieved, a cell count was performed, and cells were centrifuged for 2 min. at 1,000 rpm. Media was then aspirated, and cells were resuspended in Earle's balanced salt solution to a concentration of 0.75×10^6 cells/ml and allowed to recover for 25 min at 10° C.
At the beginning of each assay, 20 μl of cell suspension was dispensed into each well of a multi-hole 384-well SyncroPatch chip by the onboard pipettor. Cell sealing was initiated, and seal enhancer solution was added to facilitate seal formation. Upon completion of sealing, cells were washed 3 times with extracellular recording solution and the assay voltage protocol was started. Human Kv7.2, Kv7.4 or Kv7.5/7.3 channels were evaluated using a voltage protocol in which cells were voltage-clamped at a holding potential of −60 mV. Potassium currents were continuously activated with a series of three voltage steps to −30 mV for 3 seconds, 40 mV for 1 second and −90 mV for 4 seconds with 12 seconds between successive voltage sweeps. Potassium currents were measured from the −90 mV repolarizing step. Baseline current was assessed for 3.5 minutes prior to the addition of 5.6 μM zinc pyrithione (1 μM for Kv7.4). Kv7.2, Kv7.4 or Kv7.5/7.3 current in the presence of zinc pyrithione was acquired over five minutes to allow channels to reach steady state activity prior to addition of test agents. Channel activity was monitored for three minutes preceding the addition of 30 μM ML-213 (3 minutes) to achieve maximum activation. 150 mM TEA with 10 μM XE-991 was applied for 2 minutes to measure the leak current during maximum inhibition of Kv7.2, Kv7.4 or Kv7.5/7.3 channels.
Data were collected on the SyncroPatch platform using PatchControl software (Nanion) and processed and analyzed using DataControl Software (Nanion). Percent activation was calculated from potassium current as follows: The average current for the 5 sweeps in the presence of zinc pyrithione immediately preceding test agent addition was taken as the ‘control’ data. Likewise, the average potassium current in the presence of test agents 5 sweeps immediately preceding addition of 30 μM ML-213 was determined for ‘drug’ data. The average potassium current 5 sweeps immediately prior to addition of 150 mM TEA+10 μM XE-991 was determined for ‘max activation’ data while average currents from 5 sweeps immediately following addition of TEA was determined for ‘max inhibition’ data. Percent activation for each of the 384-wells of a sealchip was calculated as ((‘drug’−‘max inhibition’)/(‘max activation’−‘max inhibition’))*100 with Pipeline Pilot (Accelrys). […]

Take `COc1cc([C@H](C)NC(=O)N[C@@H]2C[C@H]2c2ccccc2)ccn1` [Example 29, 1-[(1S)-1-(2-methoxypyridin-4-yl)ethyl]-3-[(1R,2S)-2-phenylcyclopropyl]urea]: the EC50 was determined as 520 nM and the Emax came out at 47%.
The matching figures for `C[C@H](NC(=O)N[C@@H]1C[C@H]1c1ccccc1)c1ccnc(OC(F)F)c1` [Example 30, 1-((S)-1-(2-(difluoromethoxy)pyridin-4-yl)ethyl)-3-((1R,2S)-2-phenylcyclopropyl)urea]: 210 nM and 72%.
The matching figures for `O=C(NCc1ccnc(-n2cnc(C(F)(F)F)c2)c1)N[C@@H]1C[C@H]1c1ccccc1` [Example 31, 1-[(1R,2S)-2-phenylcyclopropyl]-3-[[2-[4-(trifluoromethyl)imidazol-1-yl]pyridin-4-yl]methyl]urea]: 500 nM and 44%.
The matching figures for `O=C(NCc1ccnc(C2COC2)c1)N[C@@H]1C[C@H]1c1ccccc1` [Example 32]: 3020 nM and 40%.
Regarding `C[C@H](NC(=O)N[C@@H]1C[C@H]1c1ccccc1)c1ccnc(-n2cnc(C(F)(F)F)c2)c1` [Example 33, 1-[(1R,2S)-2-phenylcyclopropyl]-3-[(1S)-1-[2-[4-(trifluoromethyl)imidazol-1-yl]pyridin-4-yl]ethyl]urea], the concentration giving a half-maximal response (EC50) is 310 nM and the maximal response (Emax) was determined as 40%.
Taken in the same sequence, the figures for `O=C(NCc1ccnc(Oc2ccccc2)c1)N[C@@H]1C[C@H]1c1ccccc1` [Example 34, 1-[(2-phenoxypyridin-4-yl)methyl]-3-[(1R,2S)-2-phenylcyclopropyl]urea] were 4780 nM and 62%.
The matching figures for `O=C(NCc1ccnc(OCC(F)F)c1)N[C@@H]1C[C@H]1c1ccccc1` [Example 35, 1-[[2-(2,2-difluoroethoxy)pyridin-4-yl]methyl]-3-[(1R,2S)-2-phenylcyclopropyl]urea]: 200 nM and 66%.
The matching figures for `O=C(NCc1ccnc(OCF)c1)N[C@@H]1C[C@H]1c1ccccc1` [Example 37]: 910 nM and 74%.
In the case of `O=C(NCc1ccnc(-n2ccc(C(F)(F)F)n2)c1)N[C@@H]1C[C@H]1c1ccccc1` [Example 39, 1-[(1R,2S)-2-phenylcyclopropyl]-3-[[2-[3-(trifluoromethyl)pyrazol-1-yl]pyridin-4-yl]methyl]urea], the 50% effective concentration (EC50) turned out to be 70 nM and the Emax came out at 78%.
On to `O=C(NCc1ccnc(OC(F)F)c1)N[C@@H]1C[C@H]1C(F)(F)F` [Example 41, 1-[[2-(difluoromethoxy)pyridin-4-yl]methyl]-3-[(1R,2R)-2-(trifluoromethyl)cyclopropyl]urea], for which the concentration for a half-maximal effect (EC50) turned out to be 230 nM and the Emax was determined as 54%.
The matching figures for `O=C(NCc1ccnc(OC2CCOCC2)c1)NC1CC1C1CCCCC1` (stereo not shown) [Example 45, 1-(2-cyclohexylcyclopropyl)-3-[[2-(oxan-4-yloxy)pyridin-4-yl]methyl]urea]: 880 nM and 77%.
The matching figures for `O=C(NCc1ccnc(OCC(F)CF)c1)N[C@@H]1C[C@H]1c1ccccc1` (stereo partly drawn) [Example 48, 1-[[2-(2,3-difluoropropoxy)pyridin-4-yl]methyl]-3-[(1R,2S)-2-phenylcyclopropyl]urea]: 570 nM and 70%.
The matching figures for `O=C(NCc1ccnc(OC(F)F)n1)N[C@@H]1C[C@H]1C(F)(F)F` [Example 49, 1-[[2-(difluoromethoxy)pyrimidin-4-yl]methyl]-3-[(1R,2R)-2-(trifluoromethyl)cyclopropyl]urea]: 3830 nM and 42%.
With `O=C(NCc1cc(OC(F)F)ncn1)N[C@H]1C[C@@H]1C(F)(F)F` [Example 52, 1-[[6-(difluoromethoxy)pyrimidin-4-yl]methyl]-3-[(1S,2S)-2-(trifluoromethyl)cyclopropyl]urea], the 50% effective concentration (EC50) was determined as 1000 nM and the Emax came to 43%.
